Measurements from US12227495B2, “Herbicidal compounds” (SYNGENTA CROP PROTECTION AG, priority 2018, dated 2025).

How the values were obtained:
Assay type in all cases: in vivo
[1] = system: Amaranthus retoflexus (AMARE); assay: Post-emergence herbicide test, glasshouse, percentage damage; conditions: 1000 g/ha, evaluated after 13 days
How it was run: (§1)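 Pot-grown plants were sprayed at 500 g/ha unless otherwise stated, in acetone/water (50:50) with 0.5% Tween 20. Pre-emergence spraying was 1 day after sowing and post-emergence after 8 days, in a glasshouse at 24/16° C, 14 h light, 65% humidity. Percentage damage was scored 13 days later on a 1–5 scale (5=81-100%).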

[2] = system: Echinochloa crus-galli (ECHCG); assay: as above; conditions: 1000 g/ha, evaluated after 13 days
How it was run: as §1

[3] = system: Ipomoea hederacea (IPOHE); assay: as above; conditions: 1000 g/ha, evaluated after 13 days
How it was run: as §1

Lolium perenne (LOLPE) [4] = assay: as above; conditions: 1000 g/ha, evaluated after 13 days
How it was run: as §1

Setaria faberi (SETFA) [5] = assay: as above; conditions: 1000 g/ha, evaluated after 13 days
How it was run: as §1

Solanum nigrum (SOLNI) [6] = assay: as above; conditions: 1000 g/ha, evaluated after 13 days
How it was run: as §1

[7] = system: Amaranthus retoflexus (AMARE); assay: Pre-emergence herbicide test, glasshouse, percentage damage; conditions: rate 1000 g/ha, evaluated after 13 days
How it was run: as §1

[8] = system: Echinochloa crus-galli (ECHCG); assay: as above; conditions: rate 1000 g/ha, evaluated after 13 days
How it was run: as §1

[9] = system: Ipomoea hederacea (IPOHE); assay: as above; conditions: rate 1000 g/ha, evaluated after 13 days
How it was run: as §1

Lolium perenne (LOLPE) [10] = assay: as above; conditions: rate 1000 g/ha, evaluated after 13 days
How it was run: as §1

Setaria faberi (SETFA) [11] = assay: as above; conditions: rate 1000 g/ha, evaluated after 13 days
How it was run: as §1

Solanum nigrum (SOLNI) [12] = assay: as above; conditions: rate 1000 g/ha, evaluated after 13 days
How it was run: as §1

| SMILES | percentage damage caused to the plant, AMARE [1] | percentage damage caused to the plant, ECHCG [2] | percentage damage caused to the plant, IPOHE [3] | percentage damage caused to the plant, LOLPE (Lolium perenne (LOLPE) [4]) | percentage damage caused to the plant, SETFA (Setaria faberi (SETFA) [5]) | percentage damage caused to the plant, SOLNI (Solanum nigrum (SOLNI) [6]) | Pre-emergence Test AMARE percentage damage (five point scale) [7] | Pre-emergence Test ECHCG percentage damage (five point scale) [8] | Pre-emergence Test IPOHE percentage damage (five point scale) [9] | Pre-emergence Test LOLPE percentage damage (five point scale) (Lolium perenne (LOLPE) [10]) | Pre-emergence Test SETFA percentage damage (five point scale) (Setaria faberi (SETFA) [11]) | Pre-emergence Test SOLNI percentage damage (five point scale) (Solanum nigrum (SOLNI) [12]) |
| --- | --- | --- | --- | --- | --- | --- | --- | --- | --- | --- | --- | --- |
| Fc1cc(Cl)cnc1Oc1ccccc1-n1cc(C(F)(F)F)nn1 [Compound A82] | 5 (5=81-100%) | 4 (4=61-80%) | 5 (5=81-100%) | 5 (5=81-100%) | 5 (5=81-100%) | 5 (5=81-100%) | 5 (5=81-100%) | 5 (5=81-100%) | 5 (5=81-100%) | 5 (5=81-100%) | 5 (5=81-100%) | 4 (4=61-80%) |
| Fc1cc(Cl)cnc1Oc1c(Br)cccc1-c1cc(C(F)F)no1 [Compound A83] | 5 (5=81-100%) | 4 (4=61-80%) | 2 (2=21-40%) | 4 (4=61-80%) | 4 (4=61-80%) | 4 (4=61-80%) | 4 (4=61-80%) | 2 (2=21-40%) | 1 (1=0-20%) | 1 (1=0-20%) | 2 (2=21-40%) | 1 (1=0-20%) |
| N#Cc1cc(F)cnc1Oc1cccc(Br)c1-c1cc(C(F)F)no1 [Compound A84] | 5 (5=81-100%) | 5 (5=81-100%) | 5 (5=81-100%) | 5 (5=81-100%) | 5 (5=81-100%) | 5 (5=81-100%) | 5 (5=81-100%) | 5 (5=81-100%) | 5 (5=81-100%) | 5 (5=81-100%) | 5 (5=81-100%) | 4 (4=61-80%) |
| N#Cc1cc(F)cnc1Oc1cccc(Cl)c1-c1cc(C(F)F)no1 [Compound A85] | 5 (5=81-100%) | 5 (5=81-100%) | 5 (5=81-100%) | 5 (5=81-100%) | 5 (5=81-100%) | 5 (5=81-100%) | 5 (5=81-100%) | 5 (5=81-100%) | 5 (5=81-100%) | 5 (5=81-100%) | 5 (5=81-100%) | 5 (5=81-100%) |
| FC(F)c1cc(-c2c(Br)cccc2Oc2cc(Cl)ccn2)on1 [Compound A86] | 4 (4=61-80%) | 4 (4=61-80%) | 4 (4=61-80%) | 4 (4=61-80%) | 4 (4=61-80%) | 4 (4=61-80%) | 4 (4=61-80%) | 5 (5=81-100%) | 1 (1=0-20%) | 4 (4=61-80%) | 5 (5=81-100%) | 2 (2=21-40%) |
| N#Cc1ccnc(Oc2cccc(Br)c2-c2cc(C(F)F)no2)c1 [Compound A87] | 4 (4=61-80%) | 3 (3=41-60%) | 3 (3=41-60%) | 3 (3=41-60%) | 5 (5=81-100%) | 4 (4=61-80%) | 4 (4=61-80%) | 4 (4=61-80%) | 1 (1=0-20%) | 4 (4=61-80%) | 5 (5=81-100%) | 3 (3=41-60%) |
